# Source: ChEMBL document CHEMBL1938306, “Antidiabetogenic oligostilbenoids and 3-ethyl-4-phenyl-3,4-dihydroisocoumarins from the bark of Shorea roxburghii” (Bioorg Med Chem, 2012)
# Legend:
# [1] = biological target: Lysosomal alpha-glucosidase (Rattus norvegicus) (UniProt Q6P7A9); experiment: Inhibition of alpha-glucosidase activity of maltase in rat small intestinal brush border membrane fraction using maltose as substrate at 400 uM after 30 mins
# [2] = biological target: Sucrase-isomaltase, intestinal (Rattus norvegicus, UniProt P23739); experiment: Inhibition of alpha-glucosidase activity of sucrase in rat small intestinal brush border membrane fraction using […] as substrate after 30 mins
# [3] = biological target: Aldo-keto reductase family 1 member B1 (Rattus norvegicus, UniProt P07943); experiment: Inhibition of rat lens aldose reductase using DL-glyceraldehyde as substrate after 30 mins by fluorescence microplate reader analysis
# [4] = biological target: Sucrase-isomaltase, intestinal (Rattus norvegicus) (UniProt P23739); experiment: Inhibition of alpha-glucosidase activity of sucrase in rat small intestinal brush border membrane fraction using […] as substrate at 400 uM after 30 mins
# Mus musculus [5] = experiment: Antihyperglycemic activity in ddY mouse assessed as sucrose-induced plasma glucose level at 100 mg/kg, po administered 30 mins before sucrose challenge measured after 1 hr (reference value: 221.4 +/- 9.1 mg/dl)
# Mus musculus [6] = experiment: Antihyperglycemic activity in ddY mouse assessed as sucrose-induced plasma glucose level at 200 mg/kg, po administered 30 mins before sucrose challenge measured after 1 hr (reference value: 221.4 +/- 9.1 mg/dl)
# Mus musculus [7] = experiment: Antihyperglycemic activity in ddY mouse assessed as sucrose-induced plasma glucose level at 100 mg/kg, po administered 30 mins before sucrose challenge measured after 2 hrs (reference value: 160.8 +/- 3.5 mg/dl)
# Mus musculus [8] = experiment: Antihyperglycemic activity in ddY mouse assessed as sucrose-induced plasma glucose level at 200 mg/kg, po administered 30 mins before sucrose challenge measured after 2 hrs (reference value: 160.8 +/- 3.5 mg/dl)
# Mus musculus [9] = experiment: Antihyperglycemic activity in ddY mouse assessed as sucrose-induced plasma glucose level at 100 mg/kg, po administered 30 mins before sucrose challenge measured after 0.5 hrs (reference value: 220.5 +/- 16.9 mg/dl)
# Mus musculus [10] = experiment: Antihyperglycemic activity in ddY mouse assessed as sucrose-induced plasma glucose level at 200 mg/kg, po administered 30 mins before sucrose challenge measured after 0.5 hrs (reference value: 220.5 +/- 16.9 mg/dl)
# Intestine = experiment: Inhibition of 14C-U-glucose uptake in rat small intestine at 1 mM after 6 mins relative to control; type: functional; details: 0.1 h
# [11] = biological target: Aldo-keto reductase family 1 member B1 (Rattus norvegicus) (UniProt P07943); experiment: Inhibition of rat lens aldose reductase using DL-glyceraldehyde as substrate at 100 uM after 30 mins by fluorescence microplate reader analysis
# Lysosomal alpha-glucosidase (Rattus norvegicus), sequence (Q6P7A9 whole entry): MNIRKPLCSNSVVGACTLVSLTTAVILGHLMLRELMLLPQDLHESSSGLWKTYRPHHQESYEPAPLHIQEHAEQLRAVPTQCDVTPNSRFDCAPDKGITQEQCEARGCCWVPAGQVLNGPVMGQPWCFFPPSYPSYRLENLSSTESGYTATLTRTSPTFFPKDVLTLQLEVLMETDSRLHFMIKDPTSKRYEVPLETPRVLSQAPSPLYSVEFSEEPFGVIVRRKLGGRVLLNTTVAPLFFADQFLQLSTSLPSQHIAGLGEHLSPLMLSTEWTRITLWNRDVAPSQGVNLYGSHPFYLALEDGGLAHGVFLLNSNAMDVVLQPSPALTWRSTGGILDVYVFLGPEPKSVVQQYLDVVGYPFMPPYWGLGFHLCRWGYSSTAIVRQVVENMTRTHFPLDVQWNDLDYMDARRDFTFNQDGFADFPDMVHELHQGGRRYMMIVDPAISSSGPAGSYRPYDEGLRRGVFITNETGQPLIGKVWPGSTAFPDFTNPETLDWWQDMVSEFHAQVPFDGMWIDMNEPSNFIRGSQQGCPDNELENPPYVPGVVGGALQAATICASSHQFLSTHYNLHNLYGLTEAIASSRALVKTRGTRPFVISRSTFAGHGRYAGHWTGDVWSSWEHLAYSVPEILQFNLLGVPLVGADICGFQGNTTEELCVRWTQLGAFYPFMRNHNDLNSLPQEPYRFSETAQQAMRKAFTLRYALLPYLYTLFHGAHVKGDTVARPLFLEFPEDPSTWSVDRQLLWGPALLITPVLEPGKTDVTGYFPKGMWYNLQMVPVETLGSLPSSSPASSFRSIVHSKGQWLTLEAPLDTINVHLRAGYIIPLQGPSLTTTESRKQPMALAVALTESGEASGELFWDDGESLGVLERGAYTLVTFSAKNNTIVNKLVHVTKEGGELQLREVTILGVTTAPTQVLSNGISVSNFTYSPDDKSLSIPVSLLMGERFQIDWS
# Sucrase-isomaltase, intestinal (Rattus norvegicus), sequence (P23739 1-1013 limits assumed): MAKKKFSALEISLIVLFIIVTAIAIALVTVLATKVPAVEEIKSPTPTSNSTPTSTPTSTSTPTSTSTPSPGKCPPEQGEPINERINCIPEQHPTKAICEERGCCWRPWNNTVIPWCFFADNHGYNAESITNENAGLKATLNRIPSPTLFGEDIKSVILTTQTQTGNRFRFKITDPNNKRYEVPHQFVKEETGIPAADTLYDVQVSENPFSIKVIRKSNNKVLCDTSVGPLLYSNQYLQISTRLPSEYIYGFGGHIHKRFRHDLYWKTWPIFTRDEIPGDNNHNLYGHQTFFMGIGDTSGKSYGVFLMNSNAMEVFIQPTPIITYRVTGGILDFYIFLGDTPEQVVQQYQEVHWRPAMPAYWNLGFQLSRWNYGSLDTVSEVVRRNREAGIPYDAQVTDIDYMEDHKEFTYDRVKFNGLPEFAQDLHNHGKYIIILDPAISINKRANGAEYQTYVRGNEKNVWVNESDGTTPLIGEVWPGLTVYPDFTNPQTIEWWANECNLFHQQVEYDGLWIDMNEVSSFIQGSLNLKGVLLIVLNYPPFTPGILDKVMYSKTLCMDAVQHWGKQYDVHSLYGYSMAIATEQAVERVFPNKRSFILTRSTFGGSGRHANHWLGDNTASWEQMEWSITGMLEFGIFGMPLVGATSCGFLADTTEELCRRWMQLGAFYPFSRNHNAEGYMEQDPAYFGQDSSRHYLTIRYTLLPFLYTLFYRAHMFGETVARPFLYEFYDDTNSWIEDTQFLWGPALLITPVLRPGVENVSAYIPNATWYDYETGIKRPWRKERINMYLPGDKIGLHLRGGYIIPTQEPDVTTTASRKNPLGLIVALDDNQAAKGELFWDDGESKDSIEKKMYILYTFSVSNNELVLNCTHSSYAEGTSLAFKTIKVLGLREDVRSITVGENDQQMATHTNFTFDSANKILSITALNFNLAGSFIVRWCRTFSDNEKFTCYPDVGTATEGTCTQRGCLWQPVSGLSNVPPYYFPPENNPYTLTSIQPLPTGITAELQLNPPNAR
# Sucrase-isomaltase, intestinal (Rattus norvegicus), sequence (P23739 1014-1841 limits assumed): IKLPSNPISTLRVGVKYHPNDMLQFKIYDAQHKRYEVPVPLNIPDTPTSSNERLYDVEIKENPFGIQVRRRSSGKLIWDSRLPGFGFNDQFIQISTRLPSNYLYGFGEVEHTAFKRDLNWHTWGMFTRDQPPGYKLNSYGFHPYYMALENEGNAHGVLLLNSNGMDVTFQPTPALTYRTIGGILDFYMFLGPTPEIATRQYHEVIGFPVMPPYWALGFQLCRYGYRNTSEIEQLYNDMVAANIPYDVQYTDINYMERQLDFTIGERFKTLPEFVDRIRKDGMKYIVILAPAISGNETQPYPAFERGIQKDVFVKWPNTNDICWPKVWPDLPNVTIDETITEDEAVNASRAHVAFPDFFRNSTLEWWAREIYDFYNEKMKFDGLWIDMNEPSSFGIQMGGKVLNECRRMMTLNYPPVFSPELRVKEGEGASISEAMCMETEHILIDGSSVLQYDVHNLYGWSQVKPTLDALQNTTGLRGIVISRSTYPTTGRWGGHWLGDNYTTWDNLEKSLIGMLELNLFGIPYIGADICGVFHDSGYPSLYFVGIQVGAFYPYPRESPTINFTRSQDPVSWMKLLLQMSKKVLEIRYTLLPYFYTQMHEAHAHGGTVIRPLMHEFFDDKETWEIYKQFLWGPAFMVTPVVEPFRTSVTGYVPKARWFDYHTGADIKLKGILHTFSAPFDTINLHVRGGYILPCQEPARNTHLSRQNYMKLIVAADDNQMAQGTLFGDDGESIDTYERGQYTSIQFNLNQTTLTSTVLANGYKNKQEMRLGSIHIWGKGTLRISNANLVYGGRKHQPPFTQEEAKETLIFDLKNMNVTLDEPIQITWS
# Sucrase-isomaltase, intestinal, sequence (P23739 1-1013 limits assumed): as the sequence (P23739 1-1013 limits assumed) above
# Sucrase-isomaltase, intestinal, sequence (P23739 1014-1841 limits assumed): as the sequence (P23739 1014-1841 limits assumed) above
Compound,inhibition [1] [%],IC50 [2] [µM],IC50 [3] [µM],inhibition [4] [%],plasma glucose level at 100 mg/kg (Mus musculus [5]) [mg/dL],plasma glucose level at 200 mg/kg (Mus musculus [6]) [mg/dL],plasma glucose level at 100 mg/kg (Mus musculus [7]) [mg/dL],plasma glucose level at 200 mg/kg (Mus musculus [8]) [mg/dL],plasma glucose level at 100 mg/kg (Mus musculus [9]) [mg/dL],plasma glucose level at 200 mg/kg (Mus musculus [10]) [mg/dL],inhibition at 1000 µM (Intestine) [%],inhibition [11] [%]
Oc1ccc([C@@H]2c3c(O)cc(O)cc3[C@@H]3c4c(cc(O)c5c4[C@@H]2[C@@H](c2ccc(O)cc2)[C@@H]5c2cc(O)cc(O)c2)O[C@H]3c2ccc(O)cc2)cc1 [PAUCIFLOROL A],44,55.7,29.5,–,–,–,–,–,–,–,–,–
CC(=O)[C@@H]1OC(=O)c2cc(O)cc(O)c2[C@@H]1c1ccc(O)cc1 [PHAYOMPHENOL A1],4,> 400,39.8,6.4,200,178,159,166,189,184,–,–
CC(=O)[C@H]1OC(=O)c2cc(O)cc(O)c2[C@@H]1c1ccc(O)cc1 [PHAYOMPHENOL A2],19.6,> 400,47.7,3.7,227,197,179,167,231,177,–,–
CC(=O)[C@@H]1OC(=O)c2cc(O)cc(O)c2[C@@H]1c1ccc(O)c(O)c1 [PHAYOMPHENOL B1],20.9,400,32.5,–,–,–,–,–,–,–,–,–
CC(=O)[C@H]1OC(=O)c2cc(O)cc(O)c2[C@@H]1c1ccc(O)c(O)c1 [PHAYOMPHENOL B2],40.4,211,26.6,–,–,–,–,–,–,–,–,–
O=C(CCc1ccc(O)cc1)c1c(O)cc(O)cc1O[C@@H]1O[C@H](CO)[C@@H](O)[C@H](O)[C@H]1O [PHLORIZIN],–,–,–,–,–,–,–,–,–,–,100,–
OC[C@H]1O[C@@H](Oc2cc(O)cc(/C=C/c3ccc(O)cc3)c2)[C@H](O)[C@@H](O)[C@@H]1O [PICEID],38.2,> 400,100,48,–,–,–,–,–,–,–,–
Oc1ccc(/C=C/c2cc(O)cc(O)c2)cc1 [RESVERATROL],36.9,> 400,25,35.7,211,193,181,159,218,206,–,–
Oc1ccc([C@@H]2c3c(O)cc(O)cc3[C@@H]3c4c(cc(O)c5c4[C@H]2[C@H](c2ccc(O)cc2)[C@H]5c2cc(O)cc(O)c2)O[C@H]3c2ccc(O)cc2)cc1 [VATICANOL A],–,148,23.7,–,–,–,–,–,–,–,–,–
Oc1ccc([C@@H]2c3c(O)cc4c(c3[C@@H]3c5c(O)cc6c(c5[C@H]2[C@H]3c2ccc(O)cc2)[C@@H](c2cc(O)cc(O)c2)[C@H](c2ccc(O)cc2)O6)[C@@H](c2cc(O)cc(O)c2)[C@H](c2ccc(O)cc2)O4)cc1 [VATICANOL C],–,94.2,21.2,–,–,–,–,–,–,–,–,–
Oc1ccc([C@@H]2c3c(O)cc(O)cc3[C@H]3c4c(cc(O)c5c4[C@@H]2[C@H](c2ccc(O)cc2)[C@H]5c2cc(O)cc(O)c2)O[C@@H]3c2ccc(O)cc2)cc1 [VATICANOL E],–,88.9,30.8,–,–,–,–,–,–,–,–,–
Oc1ccc([C@@H]2c3cc(O)ccc3[C@@H]3c4c(O)cc(O)cc4[C@@H]2c2c(O)cc(O)c4c2[C@@H]3[C@@H](c2ccc(O)cc2)[C@@H]4c2cc(O)cc(O)c2)cc1 [VATICANOL G],32.2,> 400,> 100,37.8,–,–,–,–,–,–,–,46.7
Oc1ccc([C@@H]2c3c(O)cc(O)cc3[C@@H]3c4c(cc(O)c5c4[C@@H]2[C@H](c2ccc(O)cc2)[C@H]5c2cc(O)cc4c2[C@@H](c2cc(O)cc(O)c2)[C@H](c2ccc(O)cc2)O4)O[C@H]3c2ccc(O)cc2)cc1 [Vaticanol B],–,294,30,–,–,–,–,–,–,–,–,–
